{"source": "patent US20160304957A1", "about": "“TREATMENT AND MODULATION OF GENE EXPRESSION AND SKIN AGING” (DSM NUTRITIONAL PRODUCTS LTD., priority 2006, published 2016)", "key": {"MMP-1": {"test_system": "MMP-1", "assay": "QRT-PCR gene expression in HaCaT cells with or without UVA", "assay_type": "cell-based, human", "description": "(§1) HaCaT cells were obtained from Prof. Fusenig, German Cancer Research Centre, Heidelberg. […] The accuracy of cell counting was approximately 99%.\n(§2) On day 3 of the experiment, cells were washed six times with Ca/Mg-free PBS containing 2% BSA, and then irradiated with light with a Hönle sun lamp Sol 500 (Dr. Hönle, Plannegg, Germany) at a dose of 270 kJ/m^2 in Ca/Mg-free PBS (2 hour exposure time at […]). The experimental schedule was chosen because the cells had optimal UVA sensitivity after 48 hours in culture. […] Confluent cultures were much less sensitive to irradiation.\n(§3) After irradiation, the cells were supplied with fresh β-carotene-containing serum-free medium and kept in the incubator at 37° C., 5% CO2 until harvest of the samples. In experiments in which the half-life of ^1O2 was prolonged by D2O to enhance its effect, PBS was prepared in D2O, instead of in H2O, as it was done for the standard conditions described above. Cells were washed twice in D2O-PBS prior to irradiation in D2O-PBS. After irradiation, cells were maintained with fresh β-carotene-containing serum-free medium. Sham controls were treated in an identical manner, by placing them under the solar simulator but shielded from light.\n(§4) Total RNA was isolated by using Trizol™ (Invitrogen, Basel, Switzerland) according to the instructions of the manufacturer. Random-primed cDNA was synthesized using the Superscript pre-amplification system for first strand cDNA synthesis (Invitrogen).\n(§5) cDNA corresponding to 10 ng total RNA was used as template to quantify the relative RNA expression of the genes of interest by TaqMan® real time PCR.\n(§6) The PCR analyses were carried out in triplicate and in a multiplex setup, using 18S rRNA as a calibrator gene. The rRNA primers were used at a final concentration of 50 nM, the probe at 100 nM. For quantification of the genes of interest, the primer concentrations were optimized for sensitivity of template detection. […] PCR reactions were carried out for 40 cycles of 95° C. for 15 seconds and 60° C. for 1 minute in an ABI7700 (Applied Biosystems, Rotkreuz, Switzerland). Regulation of gene expression was calculated as described in user bulletin #2 provided by the manufacturer. A threshold cycle (“CT”) is the first PCR cycle in which an amplification signal is detected. Expression levels are given as δCT values. The δCT value describes the level of gene expression as the average PCR cycle, in which the gene of interest was detected first (CT value), subtracted by the CT value of the calibrator gene 18S rRNA (CTgene of interest−CTcalibrating gene), 18S rRNA served as a measure for the amount of template in the reaction. Routinely, 18S rRNA was detected between PCR cycle 12 and 13 (SE=standard error) A low δCT corresponds to a high mRNA level."}, "MMP-9": {"test_system": "MMP-9", "assay": "QRT-PCR gene expression in HaCaT cells with or without UVA", "assay_type": "cell-based, human", "description": "as §1, §2, §3, §4, §5, §6"}, "MMP-3": {"test_system": "MMP-3", "assay": "QRT-PCR gene expression in HaCaT cells with or without UVA", "assay_type": "cell-based, human", "description": "as §1, §2, §3, §4, §5, §6"}, "MMP-10": {"test_system": "MMP-10", "assay": "QRT-PCR gene expression in HaCaT cells with or without UVA", "assay_type": "cell-based, human", "description": "as §1, §2, §3, §4, §5, §6"}, "[1]": {"test_system": "β-Carotene-15,15′-oxygenase", "assay": "QRT-PCR gene expression in HaCaT cells with or without UVA", "assay_type": "cell-based, human", "description": "as §1, §2, §3, §4, §5, §6\n(§7) HaCaT cells were pretreated for 2 days with 0.5, 1.5 or 3 μM β-carotene. The cells were irradiated with UVA (270 kJ/m^2) either in D2O-containing PBS or in H2O-containing PBS, to analyze ^1O2 inducibility of genes. Gene expression 5 hours after UVA irradiation was analyzed by QRT-PCR. Values are geometric means±standard error from three independent experiments. Upregulations greater than 1.5-fold are labelled in bold black, downregulations below 0.66-fold are bold grey."}, "RXRβ": {"test_system": "RXRβ", "assay": "QRT-PCR gene expression in HaCaT cells with or without UVA", "assay_type": "cell-based, human", "description": "as §1, §2, §3, §4, §5, §6, §7"}, "[2]": {"test_system": "β-carotene-9′,10′-oxygenase", "assay": "QRT-PCR gene expression in HaCaT cells with or without UVA", "assay_type": "cell-based, human", "description": "as §1, §2, §3, §4, §5, §6, §7"}, "HaCaT cells": {"test_system": "HaCaT cells", "assay": "Depletion of cellular β-carotene content by UVA irradiation, HPLC", "assay_type": "in vitro ADME, human", "settings": "270 kJ/m^2 UVA", "description": "as §2"}, "skin carcinogenesis": {"test_system": "skin carcinogenesis", "settings": "supplementation, rodents; cited from earlier work"}, "TIMP-1": {"test_system": "TIMP-1", "assay": "ELISA of TIMP-1 release into cell culture supernatant of HaCaT cells", "assay_type": "cell-based, human", "settings": "β-carotene, with or without UVA", "description": "HaCaT cells were supplemented with 0.5, 1.5, or 3 μM β-carotene for 2 days prior to UVA (270 kJ/m^2) irradiation. MMP-1 and TIMP-1 secretion 24 hours after irradiation was analyzed by ELISA. Each condition was represented by three replicates in the experiment. Values are means±standard error.\nRelease of MMP-1, and TIMP-1 into cell culture supernatant was determined by ELISA at 24 hours after irradiation. MMP-1 and TIMP-1 release was measured using MMP-1 and TIMP ELISA from CALBIOCHEM (San Diego, Calif., USA). The ELISAs were performed according to the manufacturer's instructions."}, "photosensitization": {"test_system": "photosensitization", "settings": "EPP patients, 180 mg/d; cited from earlier work"}, "[3]": {"settings": "β-carotene, UVA, D2O treatments"}}, "data": [{"compound": "CC1=C(/C=C/C(C)=C/C=C/C(C)=C/C=C/C=C(C)/C=C/C=C(C)/C=C/C2=C(C)CCCC2(C)C)C(C)(C)CCC1", "note": "[β-carotene, All-E-β-carotene]", "values": [{"measurement": "basal MMP-1 RNA expression", "setting": "MMP-1; unirradiated cells", "result": "tended to reduce"}, {"measurement": "UVA-induced MMP-1 induction", "setting": "MMP-1; β-carotene 1.5 μM, 5 hours after UVA, UVA alone 1.3 fold", "result": 0.9, "unit": "fold"}, {"measurement": "UVA/D2O-induced MMP-1 induction", "setting": "MMP-1; β-carotene 0.5, 1.5, 3 μM", "result": "significantly and dose-dependently reduced"}, {"measurement": "MMP-9 expression", "setting": "MMP-9; UVA/D2O experiments", "result": "no significant effect"}, {"measurement": "MMP-9 expression, tendency", "setting": "MMP-9; irradiated and unirradiated cells", "result": "tended to lower expression"}, {"measurement": "MMP-9 expression", "setting": "MMP-9; β-carotene 1.5 μM, with or without UVA", "result": "did not influence their expression significantly"}, {"measurement": "MMP-3 induction by UVA", "setting": "MMP-3; presence or absence of D2O", "result": "prevented MMP-3 induction"}, {"measurement": "UVA-induction of MMP-3", "setting": "MMP-3; β-carotene 1.5 μM, UVA alone approx. 49 fold", "result": 27, "unit": "fold"}, {"measurement": "basal MMP-10 expression", "setting": "MMP-10; unirradiated cells", "result": "tended to reduce"}, {"measurement": "UVA induction of MMP-10", "setting": "MMP-10; β-carotene 1.5 μM, UVA alone about 3 fold", "result": "approx. 2.5 fold"}, {"measurement": "MMP-10 induction by UVA and D2O", "setting": "MMP-10; β-carotene 0.5, 1.5, 3 μM", "result": "opposed MMP-10 induction by UVA and D2O in a dose-dependent fashion"}, {"measurement": "βC-15,15′-oxygenase fold induction", "setting": "[1]; D2O, UVA/βC 0.5 μM", "result": 1.08, "unit": "fold"}, {"measurement": "βC-15,15′-oxygenase fold induction", "setting": "[1]; D2O, UVA/βC 1.5 μM", "result": 0.90, "unit": "fold"}, {"measurement": "βC-15,15′-oxygenase fold induction", "setting": "[1]; D2O, UVA/βC 3 μM", "result": 0.91, "unit": "fold"}, {"measurement": "βC-15,15′-oxygenase fold induction", "setting": "[1]; D2O, βC 0.5 μM", "result": 1.19, "unit": "fold"}, {"measurement": "βC-15,15′-oxygenase fold induction", "setting": "[1]; D2O, βC 1.5 μM", "result": 1.03, "unit": "fold"}, {"measurement": "βC-15,15′-oxygenase fold induction", "setting": "[1]; D2O, βC 3 μM", "result": 0.43, "unit": "fold"}, {"measurement": "βC-15,15′-oxygenase fold induction", "setting": "[1]; H2O, UVA/βC 0.5 μM", "result": 0.60, "unit": "fold"}, {"measurement": "βC-15,15′-oxygenase fold induction", "setting": "[1]; H2O, UVA/βC 1.5 μM", "result": 0.84, "unit": "fold"}, {"measurement": "βC-15,15′-oxygenase fold induction", "setting": "[1]; H2O, UVA/βC 3 μM", "result": 0.91, "unit": "fold"}, {"measurement": "βC-15,15′-oxygenase fold induction", "setting": "[1]; H2O, βC 0.5 μM", "result": 1.09, "unit": "fold"}, {"measurement": "βC-15,15′-oxygenase fold induction", "setting": "[1]; H2O, βC 1.5 μM", "result": 1.19, "unit": "fold"}, {"measurement": "βC-15,15′-oxygenase fold induction", "setting": "[1]; H2O, βC 3 μM", "result": 1.08, "unit": "fold"}, {"measurement": "β-Carotene-15,15′-oxygenase RNA level", "setting": "[1]; [3]", "result": "not significantly influenced"}, {"measurement": "basal or UVA-regulated expression level of RXRβ", "setting": "RXRβ", "result": "no significant effect"}, {"measurement": "RXRβ fold induction", "setting": "RXRβ; D2O, UVA/βC 0.5 μM", "result": 1.23, "unit": "fold"}, {"measurement": "RXRβ fold induction", "setting": "RXRβ; D2O, UVA/βC 1.5 μM", "result": 1.09, "unit": "fold"}, {"measurement": "RXRβ fold induction", "setting": "RXRβ; D2O, UVA/βC 3 μM", "result": 0.76, "unit": "fold"}, {"measurement": "RXRβ fold induction", "setting": "RXRβ; D2O, βC 0.5 μM", "result": 1.32, "unit": "fold"}, {"measurement": "RXRβ fold induction", "setting": "RXRβ; D2O, βC 1.5 μM", "result": 1.17, "unit": "fold"}, {"measurement": "RXRβ fold induction", "setting": "RXRβ; D2O, βC 3 μM", "result": 1.61, "unit": "fold"}, {"measurement": "RXRβ fold induction", "setting": "RXRβ; H2O, UVA/βC 0.5 μM", "result": 0.93, "unit": "fold"}, {"measurement": "RXRβ fold induction", "setting": "RXRβ; H2O, UVA/βC 1.5 μM", "result": 0.71, "unit": "fold"}, {"measurement": "RXRβ fold induction", "setting": "RXRβ; H2O, UVA/βC 3 μM", "result": 1.04, "unit": "fold"}, {"measurement": "RXRβ fold induction", "setting": "RXRβ; H2O, βC 0.5 μM", "result": 0.67, "unit": "fold"}, {"measurement": "RXRβ fold induction", "setting": "RXRβ; H2O, βC 1.5 μM", "result": 0.99, "unit": "fold"}, {"measurement": "RXRβ fold induction", "setting": "RXRβ; H2O, βC 3 μM", "result": 0.99, "unit": "fold"}, {"measurement": "βC-9′,10′-oxygenase fold induction", "setting": "[2]; D2O, UVA/βC 0.5 μM", "result": 1.43, "unit": "fold"}, {"measurement": "βC-9′,10′-oxygenase fold induction", "setting": "[2]; D2O, UVA/βC 1.5 μM", "result": 2.30, "unit": "fold"}, {"measurement": "βC-9′,10′-oxygenase fold induction", "setting": "[2]; D2O, UVA/βC 3 μM", "result": 2.19, "unit": "fold"}, {"measurement": "βC-9′,10′-oxygenase fold induction", "setting": "[2]; D2O, βC 0.5 μM", "result": 0.93, "unit": "fold"}, {"measurement": "βC-9′,10′-oxygenase fold induction", "setting": "[2]; D2O, βC 1.5 μM", "result": 1.19, "unit": "fold"}, {"measurement": "βC-9′,10′-oxygenase fold induction", "setting": "[2]; D2O, βC 3 μM", "result": 1.11, "unit": "fold"}, {"measurement": "βC-9′,10′-oxygenase fold induction", "setting": "[2]; H2O, UVA/βC 0.5 μM", "result": 0.75, "unit": "fold"}, {"measurement": "βC-9′,10′-oxygenase fold induction", "setting": "[2]; H2O, UVA/βC 1.5 μM", "result": 0.70, "unit": "fold"}, {"measurement": "βC-9′,10′-oxygenase fold induction", "setting": "[2]; H2O, UVA/βC 3 μM", "result": 0.99, "unit": "fold"}, {"measurement": "βC-9′,10′-oxygenase fold induction", "setting": "[2]; H2O, βC 0.5 μM", "result": 0.90, "unit": "fold"}, {"measurement": "βC-9′,10′-oxygenase fold induction", "setting": "[2]; H2O, βC 1.5 μM", "result": 0.85, "unit": "fold"}, {"measurement": "βC-9′,10′-oxygenase fold induction", "setting": "[2]; H2O, βC 3 μM", "result": 0.76, "unit": "fold"}, {"measurement": "β-carotene-9′,10′-oxygenase RNA level", "setting": "[2]; [3]", "result": "not significantly influenced"}, {"measurement": "effect of UVA on cellular β-carotene content", "setting": "HaCaT cells; 0.5 μM β-carotene 2 days", "result": "did not reduce"}, {"measurement": "cellular β-carotene stores remaining after UVA irradiation", "setting": "HaCaT cells; 1.5 or 3 μM β-carotene 2 days", "result": "about 13%"}, {"measurement": "skin carcinogenesis", "setting": "skin carcinogenesis", "result": "reduced skin carcinogenesis"}, {"measurement": "TIMP-1 protein level", "setting": "TIMP-1", "result": "not significantly influenced"}, {"measurement": "symptoms of photosensitization", "setting": "photosensitization", "result": "alleviated the symptoms of photosensitization"}]}]}
